Assay results published in BigSolDB 2.1.

CCCCCCCCCCCC(=O)O
solubility (mole fraction) (in ethanol, 276.17 K): 0.0422
solubility (mole fraction) (in ethanol, 279.16 K): 0.0554
solubility (mole fraction) (in ethanol, 282.16 K): 0.0739
solubility (mole fraction) (in ethanol, 285.15 K): 0.0924
solubility (mole fraction) (in ethanol, 288.15 K): 0.119
solubility (mole fraction) (in ethanol, 291.14 K): 0.151
solubility (mole fraction) (in ethanol, 294.14 K): 0.194
solubility (mole fraction) (in ethanol, 297.13 K): 0.244
solubility (mole fraction) (in ethanol, 300.13 K): 0.305
solubility (mole fraction) (in ethanol, 303.12 K): 0.386
solubility (mole fraction) (in ethanol, 306.12 K): 0.482
solubility (mole fraction) (in isobutanol, 276.17 K): 0.0659
solubility (mole fraction) (in isobutanol, 279.16 K): 0.0817
solubility (mole fraction) (in isobutanol, 282.16 K): 0.102
solubility (mole fraction) (in isobutanol, 285.15 K): 0.128
solubility (mole fraction) (in isobutanol, 288.15 K): 0.158
solubility (mole fraction) (in isobutanol, 291.14 K): 0.195
solubility (mole fraction) (in isobutanol, 294.14 K): 0.238
solubility (mole fraction) (in isobutanol, 297.13 K): 0.289
solubility (mole fraction) (in isobutanol, 300.13 K): 0.351
solubility (mole fraction) (in isobutanol, 303.12 K): 0.422
solubility (mole fraction) (in isobutanol, 306.12 K): 0.514
solubility (mole fraction) (in isopentanol, 276.17 K): 0.0814
solubility (mole fraction) (in isopentanol, 279.16 K): 0.1
solubility (mole fraction) (in isopentanol, 282.16 K): 0.122
solubility (mole fraction) (in isopentanol, 285.15 K): 0.15
solubility (mole fraction) (in isopentanol, 288.15 K): 0.179
solubility (mole fraction) (in isopentanol, 291.14 K): 0.217
solubility (mole fraction) (in isopentanol, 294.14 K): 0.263
solubility (mole fraction) (in isopentanol, 297.13 K): 0.315
solubility (mole fraction) (in isopentanol, 300.13 K): 0.376
solubility (mole fraction) (in isopentanol, 303.12 K): 0.446
solubility (mole fraction) (in isopentanol, 306.12 K): 0.537
solubility (mole fraction) (in methanol, 276.17 K): 0.0318
solubility (mole fraction) (in methanol, 279.16 K): 0.0419
solubility (mole fraction) (in methanol, 282.16 K): 0.0555
solubility (mole fraction) (in methanol, 285.15 K): 0.0723
solubility (mole fraction) (in methanol, 288.15 K): 0.0942
solubility (mole fraction) (in methanol, 291.14 K): 0.123
solubility (mole fraction) (in methanol, 294.14 K): 0.161
solubility (mole fraction) (in methanol, 297.13 K): 0.208
solubility (mole fraction) (in methanol, 300.13 K): 0.264
solubility (mole fraction) (in methanol, 303.12 K): 0.341
solubility (mole fraction) (in methanol, 306.12 K): 0.433
solubility (mole fraction) (in n-butanol, 276.17 K): 0.0646
solubility (mole fraction) (in n-butanol, 279.16 K): 0.0801
solubility (mole fraction) (in n-butanol, 282.16 K): 0.0999
solubility (mole fraction) (in n-butanol, 285.15 K): 0.123
solubility (mole fraction) (in n-butanol, 288.15 K): 0.151
solubility (mole fraction) (in n-butanol, 291.14 K): 0.188
solubility (mole fraction) (in n-butanol, 294.14 K): 0.229
solubility (mole fraction) (in n-butanol, 297.13 K): 0.283
solubility (mole fraction) (in n-butanol, 300.13 K): 0.338
solubility (mole fraction) (in n-butanol, 303.12 K): 0.418
solubility (mole fraction) (in n-butanol, 306.12 K): 0.51
solubility (mole fraction) (in n-hexanol, 276.17 K): 0.0827
solubility (mole fraction) (in n-hexanol, 279.16 K): 0.0991
solubility (mole fraction) (in n-hexanol, 282.16 K): 0.122
solubility (mole fraction) (in n-hexanol, 285.15 K): 0.151
solubility (mole fraction) (in n-hexanol, 288.15 K): 0.183
solubility (mole fraction) (in n-hexanol, 291.14 K): 0.22
solubility (mole fraction) (in n-hexanol, 294.14 K): 0.266
solubility (mole fraction) (in n-hexanol, 297.13 K): 0.322
solubility (mole fraction) (in n-hexanol, 300.13 K): 0.39
solubility (mole fraction) (in n-hexanol, 303.12 K): 0.464
solubility (mole fraction) (in n-hexanol, 306.12 K): 0.549
solubility (mole fraction) (in n-pentanol, 276.17 K): 0.0742
solubility (mole fraction) (in n-pentanol, 279.16 K): 0.0907
solubility (mole fraction) (in n-pentanol, 282.16 K): 0.113
solubility (mole fraction) (in n-pentanol, 285.15 K): 0.137
solubility (mole fraction) (in n-pentanol, 288.15 K): 0.167
solubility (mole fraction) (in n-pentanol, 291.14 K): 0.204
solubility (mole fraction) (in n-pentanol, 294.14 K): 0.247
solubility (mole fraction) (in n-pentanol, 297.13 K): 0.301
solubility (mole fraction) (in n-pentanol, 300.13 K): 0.368
solubility (mole fraction) (in n-pentanol, 303.12 K): 0.435
solubility (mole fraction) (in n-pentanol, 306.12 K): 0.53
solubility (mole fraction) (in n-propanol, 276.17 K): 0.054
solubility (mole fraction) (in n-propanol, 279.16 K): 0.0685
solubility (mole fraction) (in n-propanol, 282.16 K): 0.0859
solubility (mole fraction) (in n-propanol, 285.15 K): 0.108
solubility (mole fraction) (in n-propanol, 288.15 K): 0.135
solubility (mole fraction) (in n-propanol, 291.14 K): 0.169
solubility (mole fraction) (in n-propanol, 294.14 K): 0.21
solubility (mole fraction) (in n-propanol, 297.13 K): 0.261
solubility (mole fraction) (in n-propanol, 300.13 K): 0.319
solubility (mole fraction) (in n-propanol, 303.12 K): 0.399
solubility (mole fraction) (in n-propanol, 306.12 K): 0.488
